Source: patent publication US9593149B2, “Amylin and calcitonin receptor agonist” (Novo Nordisk A/S, priority 2014, dated 2017)
≈ marks a conversion by molar mass, not a printed value. Numbered stars: 1 amine (or outer) side, 2 acyl side, 3 side chain; on linkers, the order of the positions; unused ones are H or OH. Peptide text beside a SMILES is read from it. * marks the point of attachment. C20 diacid = O=C(O)CCCCCCCCCCCCCCCCCCC(=O)*; C18 diacid = O=C(O)CCCCCCCCCCCCCCCCC(=O)*; γGlu = O=C(O)[C@H](CCC(=O)[*:2])N[*:1]; Palmitoyl = CCCCCCCCCCCCCCCC(=O)*

Assay: Assay (IV) determination of solubility
Assay type: physicochemical
Description: Assay (IV)—Determination of Solubility
The mimylin peptide was dissolved in water at ˜500 nmol/ml and mixed 1:1 with a series of buffers (100 mM glycylglycine pH 3.0, 100 mM glycylglycine pH 4.0, 100 mM glycylglycine pH 5.0, 100 mM bistrispropane pH 6.0, 100 mM bistrispropane pH 6.5, 100 mM bistrispropane pH 7.0, 100 mM bistrispropane pH 7.5, 100 mM bistrispropane pH 8.0).

| SMILES | Solubility (pH 3.0) | Solubility (pH 4.0) | solubility at 18 h (pH 5.0) [µM] | Solubility (pH 6.0) | Solubility (pH 6.5) | Solubility (pH 7.0) | Solubility (pH 7.5) | Solubility (pH 8.0) | solubility at 18 h (pH 4.0) [µM] | Solubility (pH 5.0) |
| --- | --- | --- | --- | --- | --- | --- | --- | --- | --- | --- |
| CC(C)C[C@H](NC(=O)[C@H](C)NC(=O)[C@H](C)NC(=O)[C@@H](NC(=O)[C@H](CO)NC(=O)[C@H](CC(C)C)NC(=O)[C@H](CCC(=O)O)NC(=O)[C@H](CO)NC(=O)[C@H](C)NC(=O)CC[C@H](NC(=O)CCCCCCCCCCCCCCCCCCC(=O)O)C(=O)O)[C@@H](C)O)C(=O)NCC(=O)N[C@@H](CCCNC(=N)N)C(=O)N[C@@H](CC(C)C)C(=O)N[C@@H](CO)C(=O)N[C@@H](C)C(=O)N[C@@H](CCC(=O)O)C(=O)N[C@@H](CC(C)C)C(=O)N[C@@H](Cc1cnc[nH]1)C(=O)N[C@@H](CCC(=O)O)C(=O)N[C@@H](CC(C)C)C(=O)N[C@@H](C)C(=O)N[C@H](C(=O)N[C@@H](Cc1ccc(O)cc1)C(=O)N1CCC[C@H]1C(=O)N[C@@H](CCCNC(=N)N)C(=O)N[C@H](C(=O)N[C@@H](CCC(=O)O)C(=O)N[C@H](C(=O)NCC(=O)N[C@@H](CO)C(=O)NCC(=O)N[C@@H](CO)C(=O)N[C@@H](Cc1ccc(O)cc1)C(N)=O)[C@@H](C)O)[C@@H](C)O)[C@@H](C)O [compound 80, [N-terminal(C20 diacid-gGlu), des1, 23Y, 30S, 31G, 33Y]mimylin] ({C20 diacid-γGlu}-ASELSTAALGRLSAELHELATYPRTETGSGSY-NH2) | ≧200 μM | ≧200 μM | 10 (≈ 37.9 µg/mL) | ≧200 μM | ≧200 μM | ≧200 μM | ≧200 μM | ≧200 μM | – | – |
| CC(C)C[C@H](NC(=O)[C@H](C)NC(=O)[C@H](C)NC(=O)[C@@H](NC(=O)[C@H](CO)NC(=O)[C@H](CC(C)C)NC(=O)[C@H](CCC(=O)O)NC(=O)[C@H](CO)NC(=O)[C@H](C)NC(=O)CC[C@H](NC(=O)CCCCCCCCCCCCCCCCCCC(=O)O)C(=O)O)[C@@H](C)O)C(=O)NCC(=O)N[C@@H](CCCNC(=N)N)C(=O)N[C@@H](CC(C)C)C(=O)N[C@@H](CO)C(=O)N[C@@H](C)C(=O)N[C@@H](CCC(=O)O)C(=O)N[C@@H](CC(C)C)C(=O)N[C@@H](Cc1cnc[nH]1)C(=O)N[C@@H](CCC(=O)O)C(=O)N[C@@H](CC(C)C)C(=O)N[C@@H](CO)C(=O)N[C@H](C(=O)N[C@@H](Cc1ccc(O)cc1)C(=O)N1CCC[C@H]1C(=O)N[C@@H](CCCNC(=N)N)C(=O)N[C@H](C(=O)N[C@@H](CCC(=O)O)C(=O)N[C@H](C(=O)NCC(=O)N[C@@H](CO)C(=O)NCC(=O)N[C@@H](CO)C(=O)N1CCC[C@H]1C(N)=O)[C@@H](C)O)[C@@H](C)O)[C@@H](C)O [compound 82, [N-terminal(C20 diacid-gGlu), des1, 21S, 23Y, 30S, 31G]mimylin] ({C20 diacid-γGlu}-ASELSTAALGRLSAELHELSTYPRTETGSGSP-NH2) | ≧200 μM | ≧200 μM | 1 (≈ 3.74 µg/mL) | ≧200 μM | ≧200 μM | ≧200 μM | ≧200 μM | ≧200 μM | – | – |
| CC(C)C[C@H](NC(=O)[C@H](CCC(=O)O)NC(=O)[C@H](Cc1cnc[nH]1)NC(=O)[C@H](CC(C)C)NC(=O)[C@H](CCC(=O)O)NC(=O)[C@H](C)NC(=O)[C@H](CO)NC(=O)[C@H](CC(C)C)NC(=O)[C@H](CCCNC(=N)N)NC(=O)CNC(=O)[C@H](CC(C)C)NC(=O)[C@@H](NC(=O)[C@H](C)NC(=O)[C@@H](NC(=O)[C@H](CO)NC(=O)[C@@H](NC(=O)[C@H](CCC(=O)O)NC(=O)[C@H](CO)NC(=O)[C@H](C)NC(=O)[C@H](CCC(=O)O)NC(=O)CCCCCCCCCCCCCCCCC(=O)O)C(C)C)[C@@H](C)O)C(C)C)C(=O)N[C@@H](C)C(=O)N[C@H](C(=O)N[C@@H](CC(C)C)C(=O)N1CCC[C@H]1C(=O)N[C@@H](CCCNC(=N)N)C(=O)N[C@H](C(=O)N[C@@H](CCC(=O)O)C(=O)N[C@H](C(=O)NCC(=O)N1CCC[C@H]1C(=O)N[C@@H](CCC(=O)O)C(=O)N[C@@H](CO)C(=O)N1CCC[C@H]1C(N)=O)[C@@H](C)O)[C@@H](C)O)[C@@H](C)O [compound 24, [N-terminal(C18 diacid), 5V, 9V]mimylin] ({C18 diacid}-EASEVSTAVLGRLSAELHELATLPRTETGPESP-NH2) | ≧200 μM | – | 145 (≈ 543 µg/mL) | ≧200 μM | ≧200 μM | ≧200 μM | ≧200 μM | ≧200 μM | 150 (≈ 562 µg/mL) | – |
| CCCCCCCCCCCCCCCC(=O)N[C@@H](CCC(=O)O)C(=O)N[C@@H](C)C(=O)N[C@@H](CO)C(=O)N[C@@H](CCC(=O)O)C(=O)N[C@@H](CC(C)C)C(=O)N[C@@H](CO)C(=O)N[C@H](C(=O)N[C@@H](C)C(=O)N[C@@H](C)C(=O)N[C@@H](CC(C)C)C(=O)NCC(=O)N[C@@H](CCCNC(=N)N)C(=O)N[C@@H](CC(C)C)C(=O)N[C@@H](CO)C(=O)N[C@@H](C)C(=O)N[C@@H](CCC(=O)O)C(=O)N[C@@H](CC(C)C)C(=O)N[C@@H](Cc1cnc[nH]1)C(=O)N[C@@H](CCC(=O)O)C(=O)N[C@@H](CC(C)C)C(=O)N[C@@H](C)C(=O)N[C@H](C(=O)N[C@@H](CC(C)C)C(=O)N1CCC[C@H]1C(=O)N[C@@H](CCCNC(=N)N)C(=O)N[C@H](C(=O)N[C@@H](CCC(=O)O)C(=O)N[C@H](C(=O)NCC(=O)N1CCC[C@H]1C(=O)N[C@@H](CCC(=O)O)C(=O)N[C@@H](CO)C(=O)N1CCC[C@H]1C(N)=O)[C@@H](C)O)[C@@H](C)O)[C@@H](C)O)[C@@H](C)O [compound 7, [N-terminal(C16)]mimylin] (Palmitoyl-EASELSTAALGRLSAELHELATLPRTETGPESP-NH2) | ≧200 μM | ≧200 μM | – | ≧200 μM | ≧200 μM | ≧200 μM | ≧200 μM | ≧200 μM | – | ≧200 μM |
| CC(C)C[C@H](NC(=O)[C@H](CCC(=O)O)NC(=O)[C@H](Cc1cnc[nH]1)NC(=O)[C@H](CC(C)C)NC(=O)[C@H](CCC(=O)O)NC(=O)[C@H](C)NC(=O)[C@H](CO)NC(=O)[C@H](CC(C)C)NC(=O)[C@H](CCCCN)NC(=O)CNC(=O)[C@H](CC(C)C)NC(=O)[C@@H](NC(=O)[C@H](C)NC(=O)[C@@H](NC(=O)[C@H](CO)NC(=O)[C@H](CC(C)C)NC(=O)[C@H](CCC(=O)O)NC(=O)[C@H](CO)NC(=O)[C@H](C)NC(=O)[C@H](CCC(=O)O)NC(=O)CCCCCCCCCCCCCCCCC(=O)O)[C@@H](C)O)C(C)C)C(=O)N[C@@H](C)C(=O)N[C@H](C(=O)N[C@@H](CC(C)C)C(=O)N1CCC[C@H]1C(=O)N[C@@H](CCCCN)C(=O)N[C@H](C(=O)N[C@@H](CCC(=O)O)C(=O)N[C@H](C(=O)NCC(=O)N1CCC[C@H]1C(=O)N[C@@H](CCC(=O)O)C(=O)N[C@@H](CO)C(=O)N1CCC[C@H]1C(N)=O)[C@@H](C)O)[C@@H](C)O)[C@@H](C)O [compound 39, [N-terminal(C18 diacid), 9V, 12K, 25K]mimylin] ({C18 diacid}-EASELSTAVLGKLSAELHELATLPKTETGPESP-NH2) | ≧200 μM | ≧200 μM | – | ≧200 μM | ≧200 μM | ≧200 μM | ≧200 μM | ≧200 μM | – | ≧200 μM |
| CC(C)C[C@H](NC(=O)[C@H](CCC(=O)O)NC(=O)[C@H](Cc1cnc[nH]1)NC(=O)[C@H](CC(C)C)NC(=O)[C@H](CCC(=O)O)NC(=O)[C@H](C)NC(=O)[C@H](CO)NC(=O)[C@H](CC(C)C)NC(=O)[C@H](CCCNC(=N)N)NC(=O)CNC(=O)[C@H](CC(C)C)NC(=O)[C@@H](NC(=O)[C@H](C)NC(=O)[C@@H](NC(=O)[C@H](CO)NC(=O)[C@H](CC(C)C)NC(=O)[C@@H]1CCCN1C(=O)[C@@H]1CCCN1C(=O)[C@H](C)NC(=O)[C@H](CCC(=O)O)NC(=O)CCCCCCCCCCCCCCCCC(=O)O)[C@@H](C)O)C(C)C)C(=O)N[C@@H](C)C(=O)N[C@H](C(=O)N[C@@H](CC(C)C)C(=O)N1CCC[C@H]1C(=O)N[C@@H](CCCNC(=N)N)C(=O)N[C@H](C(=O)N[C@@H](CCC(=O)O)C(=O)N[C@H](C(=O)NCC(=O)N1CCC[C@H]1C(=O)N[C@@H](CCC(=O)O)C(=O)N[C@@H](CO)C(=O)N1CCC[C@H]1C(N)=O)[C@@H](C)O)[C@@H](C)O)[C@@H](C)O [compound 38, [N-terminal(C18 diacid), 3P, 4P, 9V]mimylin] ({C18 diacid}-EAPPLSTAVLGRLSAELHELATLPRTETGPESP-NH2) | ≧200 μM | ≧200 μM | – | ≧200 μM | ≧200 μM | ≧200 μM | ≧200 μM | ≧200 μM | – | ≧200 μM |
| CC(C)C[C@H](NC(=O)[C@H](C)NC(=O)[C@@H](NC(=O)[C@H](CO)NC(=O)[C@H](CC(C)C)NC(=O)[C@H](CCC(=O)O)NC(=O)[C@H](CO)NC(=O)[C@H](C)NC(=O)[C@H](CCC(=O)O)NC(=O)CCCCCCCCCCCCCCCCC(=O)O)[C@@H](C)O)C(=O)N[C@@H](C)C(=O)NCC(=O)N[C@@H](CCCNC(=N)N)C(=O)N[C@@H](CC(C)C)C(=O)N[C@@H](CO)C(=O)N[C@@H](C)C(=O)N[C@@H](CCC(=O)O)C(=O)N[C@@H](CC(C)C)C(=O)N[C@@H](Cc1cnc[nH]1)C(=O)N[C@@H](CCC(=O)O)C(=O)N[C@@H](CC(C)C)C(=O)N[C@@H](C)C(=O)N[C@H](C(=O)N[C@@H](CC(C)C)C(=O)N1CCC[C@H]1C(=O)N[C@@H](CCCNC(=N)N)C(=O)N[C@H](C(=O)N[C@@H](CCC(=O)O)C(=O)N[C@H](C(=O)NCC(=O)N1CCC[C@H]1C(=O)N[C@@H](CCC(=O)O)C(=O)N[C@@H](CO)C(=O)N1CCC[C@H]1C(N)=O)[C@@H](C)O)[C@@H](C)O)[C@@H](C)O [compound 27, [N-terminal(C18 diacid), 9L, 10A]mimylin] ({C18 diacid}-EASELSTALAGRLSAELHELATLPRTETGPESP-NH2) | ≧200 μM | ≧200 μM | – | ≧200 μM | ≧200 μM | ≧200 μM | ≧200 μM | ≧200 μM | – | ≧200 μM |
